Assay results taken from BindingDB's records for doi:10.7270/Q29G5K5D (Cc_Pmlsc, 2007).

These compounds were tested against T1, Dual specificity protein phosphatase 1 (Homo sapiens, UniProt P28562) (assay: MKP-1 phosphatase inhibitors, SAR follow-up, biochemical, in vitro (AID 579)). Conditions: pH 7; 23 °C.
T1 sequence (P28562 whole entry): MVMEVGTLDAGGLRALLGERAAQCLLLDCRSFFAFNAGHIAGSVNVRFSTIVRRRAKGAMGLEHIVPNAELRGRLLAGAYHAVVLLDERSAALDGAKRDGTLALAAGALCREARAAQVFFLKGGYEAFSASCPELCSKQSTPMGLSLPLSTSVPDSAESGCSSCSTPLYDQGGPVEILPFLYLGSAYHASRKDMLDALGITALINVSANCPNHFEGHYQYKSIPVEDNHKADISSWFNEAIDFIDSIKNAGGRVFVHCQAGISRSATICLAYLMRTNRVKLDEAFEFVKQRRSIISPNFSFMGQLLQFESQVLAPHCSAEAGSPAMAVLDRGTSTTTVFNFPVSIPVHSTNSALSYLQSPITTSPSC

| SMILES | IC50 |
| --- | --- |
| O=C(O)c1cc(C2CC2)nc2ccccc12 [2-cyclopropyl-4-quinolinecarboxylic acid] | > 50 µM |
| CN(C)C=Nc1cc(=O)[nH]c(=O)n1Cc1ccccc1 [N'-[2,6-dioxo-3-(phenylmethyl)-4-pyrimidinyl]-N,N-dimethylmethanimidamide] | > 50 µM |
| Cn1c(N)c(C(=O)COC(=O)c2cc(-c3ccccc3)nc3ccccc23)c(=O)n(C)c1=O [2-phenyl-4-quinolinecarboxylic acid [2-(4-amino-1,3-dimethyl-2,6-dioxo-5-pyrimidinyl)-2-oxoethyl] ester] | > 50 µM |
| Cn1c(=O)c(C(=O)COC(=O)c2cc(-c3ccco3)nc3ccccc23)c(N)n(Cc2ccccc2)c1=O [[2-(6-amino-1-benzyl-3-methyl-2,4-dioxopyrimidin-5-yl)-2-oxoethyl] 2-(furan-2-yl)quinoline-4-carboxylate] | 13.4 µM |
| Cn1c(=O)cc(N)n(Cc2ccccc2)c1=O [6-amino-1-benzyl-3-methyl-pyrimidine-2,4-quinone] | > 50 µM |
| CC(C)Cn1c(N)c(C(=O)COC(=O)c2cc(C3CC3)nc3ccccc23)c(=O)n(C)c1=O [2-cyclopropyl-4-quinolinecarboxylic acid [2-[4-amino-1-methyl-3-(2-methylpropyl)-2,6-dioxo-5-pyrimidinyl]-2-oxoethyl] ester] | > 50 µM |
| Cn1c(=O)c(C(=O)COC(=O)c2cc(C(F)(F)F)nc3c(C(F)(F)F)cccc23)c(N)n(CC2CC2)c1=O [2,8-bis(trifluoromethyl)-4-quinolinecarboxylic acid [2-[6-amino-1-(cyclopropylmethyl)-3-methyl-2,4-dioxo-5-pyrimidinyl]-2-oxoethyl] ester] | > 50 µM |
| O=C(O)c1cc(C(F)(F)F)nc2c(C(F)(F)F)cccc12 [2,8-bis(trifluoromethyl)-4-quinolinecarboxylic acid] | > 50 µM |
| FC(F)(F)c1cc(Br)c2cccc(C(F)(F)F)c2n1 [4-bromanyl-2,8-bis(trifluoromethyl)quinoline] | > 50 µM |
| CC(C)Cn1c(N)c(C(=O)COC(=O)c2cc(C(F)(F)F)nc3ccccc23)c(=O)n(C)c1=O [2-(trifluoromethyl)-4-quinolinecarboxylic acid [2-[4-amino-1-methyl-3-(2-methylpropyl)-2,6-dioxo-5-pyrimidinyl]-2-oxoethyl] ester] | > 50 µM |
| Cn1c(=O)c(C(=O)CCl)c(N)n(CC2CC2)c1=O [6-amino-5-(2-chloro-1-oxoethyl)-1-(cyclopropylmethyl)-3-methylpyrimidine-2,4-dione] | > 50 µM |
| CC(C)Cn1c(N)c(C(=O)COC(=O)c2cc(C(F)(F)F)nc3c(C(F)(F)F)cccc23)c(=O)n(C)c1=O [2,8-bis(trifluoromethyl)-4-quinolinecarboxylic acid [2-[4-amino-1-methyl-3-(2-methylpropyl)-2,6-dioxo-5-pyrimidinyl]-2-oxoethyl] ester] | > 50 µM |
| Cn1c(N)c(C(=O)COC(=O)c2cc(C(F)(F)F)nc3c(C(F)(F)F)cccc23)c(=O)n(Cc2ccccc2)c1=O [2,8-bis(trifluoromethyl)-4-quinolinecarboxylic acid [2-[6-amino-1-methyl-2,4-dioxo-3-(phenylmethyl)-5-pyrimidinyl]-2-oxoethyl] ester] | > 50 µM |
| CC(C)Cn1c(N)c(C(=O)COC(=O)c2cc(-c3ccco3)nc3ccccc23)c(=O)n(C)c1=O [2-(2-furanyl)-4-quinolinecarboxylic acid [2-[4-amino-1-methyl-3-(2-methylpropyl)-2,6-dioxo-5-pyrimidinyl]-2-oxoethyl] ester] | 50 µM |
| Cn1c(N)c(C(=O)COC(=O)c2cc(-c3ccccc3)nc3ccccc23)c(=O)n(Cc2ccccc2)c1=O [2-phenyl-4-quinolinecarboxylic acid [2-[6-amino-1-methyl-2,4-dioxo-3-(phenylmethyl)-5-pyrimidinyl]-2-oxoethyl] ester] | > 50 µM |
| Cn1c(=O)c(C(=O)CCl)c(N)n(Cc2ccccc2)c1=O [6-amino-1-benzyl-5-(2-chloroacetyl)-3-methyl-pyrimidine-2,4-quinone] | > 50 µM |
| Nc1cc(=O)[nH]c(=O)n1CC1CC1 | > 50 µM |
| CN(C)/C=N/c1cc(=O)n(C)c(=O)n1Cc1ccccc1 [CC-PMLSC-DMA-P129] | > 50 µM |
| Cn1c(N)c(C(=O)CCl)c(=O)n(C)c1=O [6-amino-5-(2-chloro-1-oxoethyl)-1,3-dimethylpyrimidine-2,4-dione] | > 50 µM |
| Cn1c(N)c(C(=O)COC(=O)c2ccnc3ccccc23)c(=O)n(C)c1=O [4-quinolinecarboxylic acid [2-(4-amino-1,3-dimethyl-2,6-dioxo-5-pyrimidinyl)-2-oxoethyl] ester] | > 50 µM |
| NC(=O)NCc1ccccc1 [(phenylmethyl)urea] | > 50 µM |
| CN(C)/C=N/c1cc(=O)n(Cc2ccccc2)c(=O)n1C [CC-PMLSC-DMA-P131] | > 50 µM |

| SMILES | IC50 |
| --- | --- |
| N#CCC(=O)NC(=O)NCC1CC1 [2-cyano-N-(cyclopropylmethylcarbamoyl)acetamide] | > 50 µM |
| Cn1c(=O)c(C(=O)COC(=O)c2cc(C3CC3)nc3ccccc23)c(N)n(Cc2ccccc2)c1=O [2-cyclopropyl-4-quinolinecarboxylic acid [2-[4-amino-1-methyl-2,6-dioxo-3-(phenylmethyl)-5-pyrimidinyl]-2-oxoethyl] ester] | > 50 µM |
| Cn1c(N)c(C(=O)COC(=O)c2cc(C3CC3)nc3ccccc23)c(=O)n(C)c1=O [2-cyclopropyl-4-quinolinecarboxylic acid [2-(4-amino-1,3-dimethyl-2,6-dioxo-5-pyrimidinyl)-2-oxoethyl] ester] | > 50 µM |
| Cn1c(N)c(C(=O)COC(=O)c2cc(C3CC3)nc3ccccc23)c(=O)n(Cc2ccccc2)c1=O [2-cyclopropyl-4-quinolinecarboxylic acid [2-[6-amino-1-methyl-2,4-dioxo-3-(phenylmethyl)-5-pyrimidinyl]-2-oxoethyl] ester] | 28.9 µM |
| Cn1c(=O)c(C(=O)COC(=O)c2cc(C(F)(F)F)nc3c(C(F)(F)F)cccc23)c(N)n(Cc2ccccc2)c1=O [2,8-bis(trifluoromethyl)-4-quinolinecarboxylic acid [2-[4-amino-1-methyl-2,6-dioxo-3-(phenylmethyl)-5-pyrimidinyl]-2-oxoethyl] ester] | > 50 µM |
| CN(C)C=Nc1cc(=O)[nH]c(=O)n1CC1CC1 [CC-PMLSC- DMA-P139] | > 50 µM |
| NC(=O)NCC1CC1 [1-(cyclopropylmethyl)urea] | > 50 µM |
| CN(C)/C=N/c1cc(=O)n(C)c(=O)n1CC1CC1 [CC-PMLSC-DMA-P142] | > 50 µM |
| Cn1c(=O)c(C(=O)COC(=O)c2cc(-c3ccco3)nc3ccccc23)c(N)n(CC2CC2)c1=O [2-(2-furanyl)-4-quinolinecarboxylic acid [2-[6-amino-1-(cyclopropylmethyl)-3-methyl-2,4-dioxo-5-pyrimidinyl]-2-oxoethyl] ester] | 24.6 µM |
| Cn1c(=O)c(C(=O)COC(=O)c2cc(C(F)(F)F)nc3ccccc23)c(N)n(Cc2ccccc2)c1=O [2-(trifluoromethyl)-4-quinolinecarboxylic acid [2-[4-amino-1-methyl-2,6-dioxo-3-(phenylmethyl)-5-pyrimidinyl]-2-oxoethyl] ester] | > 50 µM |
| CC(C)Cn1c(N)c(C(=O)CCl)c(=O)n(C)c1=O [6-amino-5-(2-chloro-1-oxoethyl)-3-methyl-1-(2-methylpropyl)pyrimidine-2,4-dione] | > 50 µM |
| O=C(O)c1cc(C(F)(F)F)nc2ccccc12 [2-(trifluoromethyl)-4-quinolinecarboxylic acid] | > 50 µM |
| CN(C)C=Nc1cc(=O)[nH]c(=O)n1C [N,N-dimethyl-N'-(3-methyl-2,6-dioxo-4-pyrimidinyl)methanimidamide] | > 50 µM |
| Nc1cc(=O)[nH]c(=O)n1Cc1ccccc1 [6-amino-1-benzylpyrimidine-2,4-dione] | > 50 µM |
| Oc1cc(C(F)(F)F)nc2c(C(F)(F)F)cccc12 [2,8-bis(trifluoromethyl)-1H-quinolin-4-one] | > 50 µM |
| Cn1c(N)c(C(=O)CCl)c(=O)n(Cc2ccccc2)c1=O [6-amino-3-benzyl-5-(2-chloroacetyl)-1-methyl-pyrimidine-2,4-quinone] | > 50 µM |
| Cn1c(N)c(C(=O)COC(=O)c2cc(-c3ccco3)nc3ccccc23)c(=O)n(C)c1=O [2-(2-furanyl)-4-quinolinecarboxylic acid [2-(4-amino-1,3-dimethyl-2,6-dioxo-5-pyrimidinyl)-2-oxoethyl] ester] | 20.6 µM |
| Cn1c(N)cc(=O)n(Cc2ccccc2)c1=O [6-amino-1-methyl-3-(phenylmethyl)pyrimidine-2,4-dione] | > 50 µM |
| O=C(O)c1cc(-c2ccco2)nc2ccccc12 [2-(2-furanyl)-4-quinolinecarboxylic acid] | > 50 µM |
| Cn1c(N)c(C(=O)COC(=O)c2cc(-c3ccco3)nc3ccccc23)c(=O)n(Cc2ccccc2)c1=O [2-(2-furanyl)-4-quinolinecarboxylic acid [2-[6-amino-1-methyl-2,4-dioxo-3-(phenylmethyl)-5-pyrimidinyl]-2-oxoethyl] ester] | 16.9 µM |
| Cn1c(N)c(C(=O)COC(=O)c2cc(C(F)(F)F)nc3ccccc23)c(=O)n(Cc2ccccc2)c1=O [2-(trifluoromethyl)-4-quinolinecarboxylic acid [2-[6-amino-1-methyl-2,4-dioxo-3-(phenylmethyl)-5-pyrimidinyl]-2-oxoethyl] ester] | > 50 µM |
| CC(C)Cn1c(N)c(C(=O)COC(=O)c2cc(-c3ccccc3)nc3ccccc23)c(=O)n(C)c1=O [2-phenyl-4-quinolinecarboxylic acid [2-[4-amino-1-methyl-3-(2-methylpropyl)-2,6-dioxo-5-pyrimidinyl]-2-oxoethyl] ester] | > 50 µM |
